Measurements as given in patent publication US11547681B2, “N-acylethanolamide derivatives and uses thereof” (ELIEM THERAPEUTICS, INC., priority 2016, dated 2023).

What was measured:
in vitro [1] = settings: both, human; for Concentration (μM) of analyte PEA, 0 min / Concentration (μM) of analyte PEA, 10 min / Concentration (μM) of analyte PEA, 20 min / Concentration (μM) of analyte PEA, 30 min / Concentration (μM) of analyte PEA, 60 min / % Remaining of Initial (n = 1), 0 min / % Remaining of Initial (n = 1), 10 min / % Remaining of Initial (n = 1), 20 min / % Remaining of Initial (n = 1), 30 min / % Remaining of Initial (n = 1), 60 min: 1 μM; for % Remaining of Initial (n = 1), 0 min: s9, 0 h; for % Remaining of Initial (n = 1), 10 min: s9, 10 min; for % Remaining of Initial (n = 1), 20 min: s9, 20 min; for % Remaining of Initial (n = 1), 30 min: s9, 0.5 h; for % Remaining of Initial (n = 1), 60 min: s9, 1 h
Procedure: (§1) The reaction mixture, minus cofactors, was prepared as described below. The test article was added into the reaction mixture at a final concentration of 1 μM. […] An aliquot of the reaction mixture (without cofactor cocktail) was equilibrated in a shaking water bath at 37° C. for 3 minutes. The reaction was initiated by the addition of cofactor cocktail, and the mixture was incubated in a shaking water bath at 37° C. Aliquots (100 μL) were withdrawn at 0, 10, 20, 30, and 60 minutes. All samples were immediately combined with 400 uL of icecold 50/50 acetonitrile/H2O containing 0.1% formic acid and internal standard to terminate the reaction. The samples were then mixed and centrifuged to precipitate proteins. Calibration standards were prepared in matched matrix. All samples and standards were assayed by LC-MS/MS using electrospray ionization for both the dosed prodrug I-9 and the expected drug (PEA). Analytical conditions are outlined in Appendix 4-1. The test article concentration at each time point was compared to the test article concentration at time 0 to determine the percent remaining at each time point. Half-lives were calculated using GraphPad software, fitting to single-phase exponential decay equation.
(§2) Reaction mixture, minus cofactors, was prepared as described below. Test article was added into the reaction mixture at a final concentration of 1 μM. […] An aliquot of the reaction mixture (without cofactor cocktail) was equilibrated in a shaking water bath at 37° C. for 3 minutes. The reaction was initiated by the addition of cofactor cocktail, and the mixture was incubated in a shaking water bath at 37° C. Aliquots (100 μL) were withdrawn at 0, 10, 20, 30, and 60 minutes. Test article samples were immediately combined with 300 μL of ice-cold acetonitrile containing 1% formic acid. Control samples were immediately combined with 400 μL of ice-cold 50/50 acetonitrile (ACN)/dH2O containing 0.1% formic acid and internal standard to terminate the reaction. Samples were then mixed and centrifuged to precipitate proteins. Calibration standards were prepared in matched matrix. Samples and standards were assayed by LC-MS/MS using electrospray ionization for both the dosed prodrug and the expected drug (PEA). Analytical conditions are outlined in Appendix 8-1. Test article concentration at each time point was compared to test article concentration at time 0 to determine the percent remaining at each time point. Halflives were calculated using GraphPad software, fitting to a single-phase exponential decay equation.
as §2, with “for 5” for “for 3”, “minutes. Reaction” for “minutes. The reaction”, “and” for “and the”, “both” for “both the”, “Appendix 10-1.” for “Appendix 8-1.”
(§3) Reaction mixture, minus cofactors, was prepared as described below.

in vitro [2] = settings: male, Sprague-Dawley, rat; for Concentration (μM) of analyte PEA, 0 min / Concentration (μM) of analyte PEA, 10 min / Concentration (μM) of analyte PEA, 20 min / Concentration (μM) of analyte PEA, 30 min / Concentration (μM) of analyte PEA, 60 min / % Remaining of Initial (n = 1), 0 min / % Remaining of Initial (n = 1), 10 min / % Remaining of Initial (n = 1), 20 min / % Remaining of Initial (n = 1), 30 min / % Remaining of Initial (n = 1), 60 min: 1 μM; for % Remaining of Initial (n = 1), 0 min: s9, 0 h; for % Remaining of Initial (n = 1), 10 min: s9, 10 min; for % Remaining of Initial (n = 1), 20 min: s9, 20 min; for % Remaining of Initial (n = 1), 30 min: s9, 0.5 h; for % Remaining of Initial (n = 1), 60 min: s9, 1 h; for microsomal CLint at 1 μM: s9, CLint (mL/min/mg protein); for half-life at 1 μM: s9, Half-life (min)
Procedure: as §1, §2
as §2, with “for 5” for “for 3”, “minutes. Reaction” for “minutes. The reaction”, “and” for “and the”, “both” for “both the”, “Appendix 10-1.” for “Appendix 8-1.”
as §3

in vitro [3] = settings: male, Beagle, dog; for Concentration (μM) of analyte PEA, 0 min / Concentration (μM) of analyte PEA, 10 min / Concentration (μM) of analyte PEA, 20 min / Concentration (μM) of analyte PEA, 30 min / Concentration (μM) of analyte PEA, 60 min / % Remaining of Initial (n = 1), 0 min / % Remaining of Initial (n = 1), 10 min / % Remaining of Initial (n = 1), 20 min / % Remaining of Initial (n = 1), 30 min / % Remaining of Initial (n = 1), 60 min: 1 μM; for % Remaining of Initial (n = 1), 0 min: s9, 0 h; for % Remaining of Initial (n = 1), 10 min: s9, 10 min; for % Remaining of Initial (n = 1), 20 min: s9, 20 min; for % Remaining of Initial (n = 1), 30 min: s9, 0.5 h; for % Remaining of Initial (n = 1), 60 min: s9, 1 h
Procedure: as §2
as §2, with “for 5” for “for 3”, “minutes. Reaction” for “minutes. The reaction”, “and” for “and the”, “both” for “both the”, “Appendix 10-1.” for “Appendix 8-1.”
Reaction mixture, minus cofactors, was prepared as described below. Test article was added into the reaction mixture at a final concentration of 1 μM. […] An aliquot of the reaction mixture (without cofactor cocktail) was equilibrated in a shaking water bath at 37° C. for 3 minutes. Reaction was initiated by the addition of cofactor cocktail, and the mixture was incubated in a shaking water bath at 37° C. Aliquots (100 μL) were withdrawn at 0, 10, 20, 30, and 60 minutes. Test article samples were immediately combined with 300 μL of ice-cold acetonitrile containing 1% formic acid. Control samples were immediately combined with 400 μL of ice-cold 50/50 acetonitrile (ACN)/dH2O containing 0.1% formic acid and internal standard to terminate the reaction. Samples were then mixed and centrifuged to precipitate proteins. Calibration standards were prepared in matched matrix. Samples and standards were assayed by LC-MS/MS using electrospray ionization for both dosed prodrug and expected drug (PEA). Analytical conditions are outlined in Appendix 13-1. Test article concentration at each time point was compared to test article concentration at time 0 to determine the percent remaining at each time point. Halflives were calculated using GraphPad software, fitting to a single-phase exponential decay equation.

CCCCCCCCCCCCCCCC(=O)NCCOC(=O)CCC [Compound I-2]
Concentration (μM) of analyte PEA, 0 min (in vitro [1]): 0.011 µM | Concentration (μM) of analyte PEA, 10 min (in vitro [1]): 0.057 µM | Concentration (μM) of analyte PEA, 20 min (in vitro [1]): 0.075 µM | Concentration (μM) of analyte PEA, 30 min (in vitro [1]): 0.067 µM | Concentration (μM) of analyte PEA, 60 min (in vitro [1]): 0.11 µM | % Remaining of Initial (n = 1), 0 min (in vitro [1]): 100% | % Remaining of Initial (n = 1), 10 min (in vitro [1]): 73% | % Remaining of Initial (n = 1), 20 min (in vitro [1]): 41% | % Remaining of Initial (n = 1), 30 min (in vitro [1]): 28% | % Remaining of Initial (n = 1), 60 min (in vitro [1]): 9.6% | Concentration (μM) of analyte PEA, 0 min (in vitro [2]): 0.69 µM | Concentration (μM) of analyte PEA, 10 min (in vitro [2]): 0.63 µM | Concentration (μM) of analyte PEA, 20 min (in vitro [2]): 0.60 µM | Concentration (μM) of analyte PEA, 30 min (in vitro [2]): 0.52 µM | Concentration (μM) of analyte PEA, 60 min (in vitro [2]): 0.52 µM | % Remaining of Initial (n = 1), 0 min (in vitro [2]): 100% | % Remaining of Initial (n = 1), 10 min (in vitro [2]): 35% | % Remaining of Initial (n = 1), 20 min (in vitro [2]): <1.0% | % Remaining of Initial (n = 1), 30 min (in vitro [2]): <1.0% | % Remaining of Initial (n = 1), 60 min (in vitro [2]): <1.0% | microsomal CLint at 1 μM (in vitro [2]): 123 µL/min/mg | half-life at 1 μM (in vitro [2]): 5.6 min | Concentration (μM) of analyte PEA, 0 min (in vitro [3]): 0.11 µM | Concentration (μM) of analyte PEA, 10 min (in vitro [3]): 0.40 µM | Concentration (μM) of analyte PEA, 20 min (in vitro [3]): 0.50 µM | Concentration (μM) of analyte PEA, 30 min (in vitro [3]): 0.53 µM | Concentration (μM) of analyte PEA, 60 min (in vitro [3]): 0.54 µM | % Remaining of Initial (n = 1), 0 min (in vitro [3]): 100% | % Remaining of Initial (n = 1), 10 min (in vitro [3]): 36% | % Remaining of Initial (n = 1), 20 min (in vitro [3]): 12% | % Remaining of Initial (n = 1), 30 min (in vitro [3]): 4.2% | % Remaining of Initial (n = 1), 60 min (in vitro [3]): <1.0%

CCCCCCCCCCCCCCCC(=O)NCCOC(=O)CCC(=O)OCC(COC(=O)CCCCCCC)OC(=O)CCCCCCC (centres unmarked) [Compound I-3, PEA-Succinate-Glycerol-Di-Caprylic]
Concentration (μM) of analyte PEA, 0 min (in vitro [1]): 0 µM | Concentration (μM) of analyte PEA, 10 min (in vitro [1]): 0.0027 µM | Concentration (μM) of analyte PEA, 20 min (in vitro [1]): 0.025 µM | Concentration (μM) of analyte PEA, 30 min (in vitro [1]): 0.034 µM | Concentration (μM) of analyte PEA, 60 min (in vitro [1]): 0.048 µM | % Remaining of Initial (n = 1), 0 min (in vitro [1]): 100% | % Remaining of Initial (n = 1), 10 min (in vitro [1]): 76% | % Remaining of Initial (n = 1), 20 min (in vitro [1]): 86% | % Remaining of Initial (n = 1), 30 min (in vitro [1]): 83% | % Remaining of Initial (n = 1), 60 min (in vitro [1]): 60% | microsomal CLint at 1 μM (in vitro [1]; s9, CLint (mL/min/mg protein)): < 11.6 µL/min/mg | half-life at 1 μM (in vitro [1]; s9, Half-life (min)): > 60 min | Concentration (μM) of analyte PEA, 0 min (in vitro [2]): 0 µM | Concentration (μM) of analyte PEA, 10 min (in vitro [2]): 0.024 µM | Concentration (μM) of analyte PEA, 20 min (in vitro [2]): 0.037 µM | Concentration (μM) of analyte PEA, 30 min (in vitro [2]): 0.047 µM | Concentration (μM) of analyte PEA, 60 min (in vitro [2]): 0.073 µM | % Remaining of Initial (n = 1), 0 min (in vitro [2]): 100% | % Remaining of Initial (n = 1), 10 min (in vitro [2]): 53% | % Remaining of Initial (n = 1), 20 min (in vitro [2]): 46% | % Remaining of Initial (n = 1), 30 min (in vitro [2]): 42% | % Remaining of Initial (n = 1), 60 min (in vitro [2]): 31% | microsomal CLint at 1 μM (in vitro [2]): 26.8 µL/min/mg | half-life at 1 μM (in vitro [2]): 26 min | Concentration (μM) of analyte PEA, 0 min (in vitro [3]): 0.015 µM | Concentration (μM) of analyte PEA, 10 min (in vitro [3]): 0.23 µM | Concentration (μM) of analyte PEA, 20 min (in vitro [3]): 0.28 µM | Concentration (μM) of analyte PEA, 30 min (in vitro [3]): 0.29 µM | Concentration (μM) of analyte PEA, 60 min (in vitro [3]): 0.50 µM | % Remaining of Initial (n = 1), 0 min (in vitro [3]): 100% | % Remaining of Initial (n = 1), 10 min (in vitro [3]): 46% | % Remaining of Initial (n = 1), 20 min (in vitro [3]): 46% | % Remaining of Initial (n = 1), 30 min (in vitro [3]): 34% | % Remaining of Initial (n = 1), 60 min (in vitro [3]): 18% | microsomal CLint at 1 μM (in vitro [3]; s9, CLint (mL/min/mg protein)): 36.8 µL/min/mg | half-life at 1 μM (in vitro [3]; s9, Half-life (min)): 19 min
